# Experimental data as given in US9113629B2, “4-amino-6-(4-substituted-phenyl)-picolinates and 6-amino-2-(4-substituted-phenyl)-pyrimidine-4-carboxylates and their use as herbicides” (DOW AGROSCIENCES LLC, priority 2013, dated 2015).
# How the values were obtained:
# [1] = tested on: LOLSS: ryegrass including, Italian ryegrass (Lolium multiflorum), rigid ryegrass (Lolium rigidum), annual ryegrass (Lolium multiflorum subsp. Gaudini); assay: Post-emergent Test III, herbicidal activity in wheat and barley; assay type: in vivo; conditions: Table 9, probit analysis, 21 d; for GR50 LOLSS: dose for 50 percent growth reduction; for GR80 LOLSS: dose for 80 percent growth reduction
# Outline: (§1)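 GR20, GR50, GR80 and GR90 come from probit analysis of visual injury scores (0 = none, 100 = complete kill) taken 21 d after treatment. Foliar application was by track sprayer delivering 187 L/ha at five rates, from high down to 1/16×, onto greenhouse plants at the 2–3 leaf stage, with solvent-blank controls.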
# [2] = as above; assay type: in vivo, Lolium multiflorum, Lolium rigidum; conditions: Lolium multiflorum, post-emergence, 504 h, Table 9, post-emergent, 21 d, read-out: Visual Growth Reduction (%) 21 Days After Application LOLSS; for pest or weed control at 35 g/ha: 35 g ai/ha; for pest or weed control at 70 g/ha: 70 g ai/ha; for pest or weed control at 140 g/ha: 140 g ai/ha
# Outline: as §1
# [3] = tested on: HORSS: barley, including spring and winter (Hordeum vulgare); assay: as above; assay type: in vivo; conditions: Table 9, 21 d; for pest or weed control at 35 g/ha / pest or weed control at 70 g/ha / pest or weed control at 140 g/ha: Hordeum vulgare, post-emergence, 504 h, post-emergent, read-out: Visual Growth Reduction (%) 21 Days After Application HORSS; for pest or weed control at 35 g/ha: 35 g ai/ha; for pest or weed control at 70 g/ha: 70 g ai/ha; for pest or weed control at 140 g/ha: 140 g ai/ha; for GR20 HORSS: dose for 20 percent growth reduction, probit analysis
# Outline: as §1
# [4] = tested on: SETVI: green foxtail (Setaria viridis); assay: as above; assay type: in vivo; conditions: Table 9, 21 d; for pest or weed control at 35 g/ha / pest or weed control at 70 g/ha / pest or weed control at 140 g/ha: Setaria viridis, post-emergence, 504 h, post-emergent, read-out: Visual Growth Reduction (%) 21 Days After Application SETVI; for pest or weed control at 35 g/ha: 35 g ai/ha; for pest or weed control at 70 g/ha: 70 g ai/ha; for pest or weed control at 140 g/ha: 140 g ai/ha; for GR50 SETVI: dose for 50 percent growth reduction; for GR50 SETVI / GR80 SETVI: probit analysis; for GR80 SETVI: dose for 80 percent growth reduction
# Outline: as §1
# [5] = tested on: TRZSS: wheat, including spring and winter (Triticum aestivum); assay: as above; assay type: in vivo; conditions: Table 9, 21 d; for GR20 TRZSS: dose for 20 percent growth reduction, probit analysis; for pest or weed control at 35 g/ha / pest or weed control at 70 g/ha / pest or weed control at 140 g/ha: Triticum aestivum, post-emergence, 504 h, post-emergent, read-out: Visual Growth Reduction (%) 21 Days After Application TRZSS; for pest or weed control at 35 g/ha: 35 g ai/ha; for pest or weed control at 70 g/ha: 70 g ai/ha; for pest or weed control at 140 g/ha: 140 g ai/ha
# Outline: as §1
# [6] = tested on: APESV: bentgrass (Apera spica-venti); assay: as above; assay type: in vivo; conditions: Table 9, 21 d; for pest or weed control at 35 g/ha / pest or weed control at 70 g/ha / pest or weed control at 140 g/ha: Apera spica-venti, post-emergence, 504 h, post-emergent, read-out: Visual Growth Reduction (%) 21 Days After Application APESV; for pest or weed control at 35 g/ha: 35 g ai/ha; for pest or weed control at 70 g/ha: 70 g ai/ha; for pest or weed control at 140 g/ha: 140 g ai/ha; for GR50 APESV: dose for 50 percent growth reduction; for GR50 APESV / GR80 APESV: probit analysis; for GR80 APESV: dose for 80 percent growth reduction
# Outline: as §1
# [7] = tested on: KCHSC: kochia (Kochia scoparia); assay: as above; assay type: in vivo; conditions: Table 9, 21 d; for pest or weed control at 35 g/ha / pest or weed control at 70 g/ha / pest or weed control at 140 g/ha: Bassia scoparia, post-emergence, 504 h, post-emergent, read-out: Visual Growth Reduction (%) 21 Days After Application KCHSC; for pest or weed control at 35 g/ha: 35 g ai/ha; for pest or weed control at 70 g/ha: 70 g ai/ha; for pest or weed control at 140 g/ha: 140 g ai/ha; for GR50 KCHSC: dose for 50 percent growth reduction; for GR50 KCHSC / GR80 KCHSC: probit analysis; for GR80 KCHSC: dose for 80 percent growth reduction
# Outline: as §1
Compound,melting point [°C],GR50 LOLSS [1] [g ai/ha],GR80 LOLSS [1] [g ai/ha],pest or weed control at 35 g/ha [2] [%],pest or weed control at 70 g/ha [2] [%],pest or weed control at 35 g/ha [3] [%],pest or weed control at 70 g/ha [3] [%],GR20 HORSS [3] [g ai/ha],pest or weed control at 35 g/ha [4] [%],pest or weed control at 70 g/ha [4] [%],GR50 SETVI [4] [g ai/ha],GR80 SETVI [4] [g ai/ha],GR20 TRZSS [5] [g ai/ha],pest or weed control at 35 g/ha [5] [%],pest or weed control at 70 g/ha [5] [%],pest or weed control at 35 g/ha [6] [%],pest or weed control at 70 g/ha [6] [%],GR50 APESV [6] [g ai/ha],GR80 APESV [6] [g ai/ha],pest or weed control at 35 g/ha [7] [%],further results
COC(=O)c1nc(-c2ccc(Br)cc2)c(Cl)c(N)c1Cl [Compound 47],159.6 to 161.1,80,>140,0 to 29,45 to 59,95 to 100,95 to 100,1,0 to 29,75 to 84,51,104,1,85 to 94,95 to 100,95 to 100,95 to 100,10,14,85 to 94,pest or weed control at 140 g/ha [2]: 60 to 74%; pest or weed control at 140 g/ha [3]: 95 to 100%; pest or weed control at 140 g/ha [4]: 85 to 94%; pest or weed control at 140 g/ha [5]: 95 to 100%; pest or weed control at 140 g/ha [6]: 95 to 100%; pest or weed control at 70 g/ha [7]: 75 to 84%; pest or weed control at 140 g/ha [7]: 95 to 100%; GR50 KCHSC [7]: 20 g ai/ha; GR80 KCHSC [7]: 45 g ai/ha
"COC(=O)c1nc(-c2cc(F)c(Br)cc2F)c(F)c(N)c1Cl [Compound 51, methyl 4-amino-6-(4-bromo-2,5-difluorophenyl)-3-chloro-5-fluoropicolinate]",153 to 154,3,61,75 to 84,75 to 84,85 to 94,95 to 100,1,75 to 84,85 to 94,24,49,1,85 to 94,95 to 100,85 to 94,95 to 100,3,11,85 to 94,pest or weed control at 70 g/ha [7]: 95 to 100%; GR50 KCHSC [7]: 4 g ai/ha; GR80 KCHSC [7]: 14 g ai/ha
"COC(=O)c1nc(-c2cc(F)c(I)cc2F)c(F)c(N)c1Cl [Compound 55, methyl 4-amino-3-chloro-6-(2,5-difluoro-4-iodophenyl)-5-fluoropicolinate]",142 to 144,21,50,60 to 74,75 to 84,85 to 94,95 to 100,1,75 to 84,85 to 94,29,46,1,85 to 94,95 to 100,75 to 84,95 to 100,4,18,85 to 94,pest or weed control at 70 g/ha [7]: 85 to 94%; GR50 KCHSC [7]: 4 g ai/ha; GR80 KCHSC [7]: 21 g ai/ha
Nc1cc(-c2ccc(Br)cc2F)nc(C(=O)O)c1Cl [Compound 74],186 to 187.3,>140,>140,30 to 44,45 to 59,85 to 94,85 to 94,1,75 to 84,85 to 94,3,49,1,75 to 84,75 to 84,85 to 94,85 to 94,10,25,85 to 94,pest or weed control at 70 g/ha [7]: 95 to 100%; GR50 KCHSC [7]: 3 g ai/ha; GR80 KCHSC [7]: 11 g ai/ha
COC(=O)c1nc(-c2ccc(I)cc2)c(Cl)c(N)c1Cl [Compound 96],187.2 to 189.9,48,>140,45 to 59,60 to 74,85 to 94,95 to 100,1,0 to 29,60 to 74,72,128,1,85 to 94,85 to 94,30 to 44,30 to 44,125,>140,0 to 29,pest or weed control at 140 g/ha [2]: 60 to 74%; pest or weed control at 140 g/ha [3]: 95 to 100%; pest or weed control at 140 g/ha [4]: 75 to 84%; pest or weed control at 140 g/ha [5]: 95 to 100%; pest or weed control at 140 g/ha [6]: 45 to 59%; pest or weed control at 70 g/ha [7]: 60 to 74%; pest or weed control at 140 g/ha [7]: 60 to 74%; GR50 KCHSC [7]: 79 g ai/ha; GR80 KCHSC [7]: >140 g ai/ha
C=Cc1c(C(=O)O)nc(-c2ccc(Br)cc2)c(F)c1N [Compound 117],149 to 151,41,>140,45 to 59,60 to 74,0 to 29,0 to 29,73,0 to 29,60 to 74,59,99,32,0 to 29,30 to 44,45 to 59,60 to 74,41,>140,60 to 74,pest or weed control at 70 g/ha [7]: 75 to 84%; GR50 KCHSC [7]: 20 g ai/ha; GR80 KCHSC [7]: 67 g ai/ha
